Patent publication US20140148498A1, “METHODS AND COMPOSITIONS FOR THE TREATMENT OF MARFAN SYNDROME AND ASSOCIATED DISORDERS” (THE JOHNS HOPKINS UNIVERSITY, priority 2011, published 2014)
Entries after “also recorded” stand apart in the source; their conditions may differ.

Assays:
[1] = test system: Fbn1^C1039G/+ mice; test: Systolic blood pressure by tail cuff; assay type: in vivo; conditions: compared to placebo-treated animals, FIG. 8
Method: (§1) Mice were started on medication at 8 weeks of age and continued for 7 months. Losartan was dissolved in drinking water and filtered to reach a concentration of 0.6 g/L, giving an estimated daily dose of 40-60 mg/kg/day. Enalapril was dissolved in drinking water and filtered to reach a final concentration of 0.15 g/L, giving an estimated daily dose of 10-15 mg/kg/day. […] Spironolactone was dissolved in drinking water and filtered to give an estimated dose of 20 mg/kg/day, a dose previously shown to have in-vivo phenotypic benefit in cardiovascular disease states (S. Sakurabayashi-Kitade et al., Atherosclerosis 206, 54 (2009)). Placebo-treated animals received regular drinking water. Blood pressures were analyzed by taking 20 tail cuff blood pressures per day over 5 days in each mouse to habituate the mice to the tail cuff pressure system, and the blood pressures obtained on the last day were averaged. At least 4 mice for each treatment group were analyzed.

[2] = test system: Smad2; test: Western blot of aortic root and proximal ascending aorta: Smad2 activation (Examples 4-5); assay type: in vivo, mice; conditions: Fbn1^C1039G/+ mice, FIG. 10B
From the text: (§2) All mice were cared for under strict compliance with the Animal Care and Use Committee of the Johns Hopkins University School of Medicine. The Fbn1^C1039G/+ and AT2KO lines were maintained n a pure C57BL/6 background (backcrossed for greater than 9 generations), allowing for valid comparisons. In order to further accommodate the potential for temporal- or background-specified variation, all comparisons were made between contemporary littermates when possible. The AT21C0 mice were obtained as a generous gift from Dr. Inagami (T. Ichiki et al., Nature 377, 748 (1995)). The Agtr2 gene resides on the X chromosome and therefore we used either male mice carrying the mutated allele (who are hemizygous) or homozygous females, both of which have been previously shown to be functionally null for the AT2 receptor (T. Ichiki et al., Nature 377, 748 (1995)). Mice were sacrificed with an inhalation overdose of halothane (Sigma-Aldrich, St. Louis). Mice underwent immediate laparotomy, descending abdominal aortic transection, and PBS (pH 7.4) was infused through the right and left ventricles to flush out the blood. Mice that were analyzed for Western Blot analysis had their proximal ascending aortas (root to right brachiocephalic trunk) immediately dissected out, flash frozen in liquid nitrogen and stored at −80d until further processing. Mice that were analyzed for aortic histology had latex injected under low pressure into the left ventricular apex until it was visible in the descending abdominal aorta. Mice that were analyzed for lung histology had their trachea intubated with a 20-gauge blunted needle, and 0.5% agar was infused under a low and constant pressure to gradually inflate the lungs. The trachea was then tied-off using vicryl and the needle was removed. Mice were fixed for 24 hours in 10% buffered formalin, after which the heart, aorta and lungs were removed and stored in 70% ethanol.
Mouse aortic root and ascending aortas (aortic root excluding the aortic valve to origin of right brachiocephalic trunk) were harvested, snap-frozen in liquid nitrogen and stored at −80° C. until processed. Protein was extracted using the reagents and protocol from a Total Protein Extraction Kit containing protease inhibitor and Protein Phosphatase Inhibitor Cocktail (Millipore, MA). Aortas were homogenized using a pellet pestle motor (Kimble-Kontes, NJ) as per the extraction kit protocol. […] Equal protein loading of samples was determined by a protein assay (BioRad, CA), and confirmed by probing with antibodies against β-Actin or GAPDH (Sigma, Mo.). […] Blots were then washed in PBS-T, developed using SuperSignalWest HRP substrate (Pierce Scientific, IL), exposed to BioMax Scientific Imaging Film (Sigma, Mo.) and quantified using Imaged analysis software (NIH, MD).

[3] = test system: Fbn1^C1039G/+ mice; test: Aortic root growth by echocardiography, 7 months of treatment (Examples 3-5); assay type: in vivo; conditions: for Final absolute aortic root diameter: 7 months of treatment; for Aortic root growth over 7 months of treatment: versus placebo, drug in drinking water from 8 weeks of age
Method: A head-to-head comparison of ACEi versus ARBs was performed. Fbn1^C1039G/+ mice and WT littermates were treated with hemodynamically equivalent doses (FIG. 8) of either the ACEi enalapril (10 to 15 mg/kg of body weight per day) or the ARB losartan (40 to 60 mg/kg per day) (R. D. Patten et al., Clin. Sci 104, 109 (2003)), beginning at 8 weeks of age, and were assessed with serial echocardiograms. […] It is noteworthy that losartan reduced aortic root growth in Fbn1^C1039G/+ mice, but had no effect in WT littermates (P=0.27). […] Whether AT2 signaling is needed to achieve losartan's full therapeutic benefit was assessed. AT2KO:Fbn1^C1039G/+ mice were treated with losartan from 8 weeks of age and followed by serial echocardiography until they were killed at 9 months of age (FIG. 2C).
as §2, §1
Nair hair removal cream was used on all mice the day prior to echocardiograms. All echocardiograms were performed on awake, unsedated mice using the Visualsonics Vevo 660 V1.3.6 imaging system and a 30 MHz transducer. Mice were imaged at baseline, 1 month after treatment and then every two months until the time of sacrifice. […]

[4] = test system: ERK1/2; test: Western blot of aortic root and proximal ascending aorta: ERK1/2 activation (Examples 4-5); assay type: in vivo, mice; conditions: Fbn1^C1039G/+ mice, FIG. 10B
From the text: as §2, with “The trachea was then tied-off using vicryl and the needle was removed. Mice were fixed for 24 hours in 10% buffered formalin, after which the heart, aorta and lungs were removed and stored in 70% ethanol.” left out
(§3) Mouse aortic root and ascending aortas (aortic root excluding the aortic valve to origin of right brachiocephalic trunk) were harvested, snap-frozen in liquid nitrogen and stored at −80° C. until processed. […] Equal protein loading of samples was determined by a protein assay (BioRad, CA), and confirmed by probing with antibodies against β-Actin or GAPDH (Sigma, Mo.). […]

[5] = test system: p38; test: Western blot of proximal ascending aorta: p38 activation (Examples 4-5); assay type: in vivo, mice; conditions: Fbn1^C1039G/+ mice, FIG. 13
From the text: as §2, with “The trachea was then tied-off using vicryl and the needle was removed. Mice were fixed for 24 hours in 10% buffered formalin, after which the heart, aorta and lungs were removed and stored in 70% ethanol.” left out
as §3

[6] = test system: JNK1; test: Western blot of proximal ascending aorta: JNK1 activation (Examples 4-5); assay type: in vivo, mice; conditions: Fbn1^C1039G/+ mice, FIG. 13
From the text: as §2, with “The trachea was then tied-off using vicryl and the needle was removed. Mice were fixed for 24 hours in 10% buffered formalin, after which the heart, aorta and lungs were removed and stored in 70% ethanol.” left out
as §3

[7] = test system: Fbn1^C1039G/+ mice; test: Aortic wall architecture score (VVG staining); assay type: in vivo
Method: Latex-infused ascending aortas were transected just above the level of the aortic valve, and 2-3 mm transverse sections were mounted in 4% agar prior to paraffin fixation. Five micrometer aortic sections underwent Verhoeff-van Giesen (VVG) staining and were imaged at 40× magnification, using a Nikon Eclipse E400 microscope. Wall thickness of the aortic media was measured by a single blinded observer at 16 different locations around the most proximal ascending aortic ring and averaged. Wall architecture of 4 representative sections for each mouse was assessed by the same 3 blinded observers and graded on an arbitrary scale of 1 (indicating no breaks in the elastic fiber) to 5 (indicating diffuse fragmentation), and the results were averaged. Elastic fiber content was quantified in four separate representative images of each section of the most proximal ascending aorta by a single blinded observer, using NIS Elements Advanced Research (Nikon, Japan). The aortic media and the elastic fibers were individually outlined and their areas calculated. The respective areas were averaged from all the images of a given aortic section and the ratio of elastic fiber content to total aortic media was determined. Individual lobes of the lungs were mounted in 4% agar and fixed in paraffin. Five micrometer lung sections underwent hematoxylin and eosin staining and were imaged at 10× magnification, using a Nikon Eclipse E400 microscope. Five fields were analyzed for each lobe of each lung by a single blinded observer, and a mean linear intercept was calculated using a previously described method (J. P. Habashi et al., Science 312, 117 (2006); and E. R. Neptune et al., Nat. Genet. 33, 407 (2003)).

[8] = test system: WT mice; test: Aortic root growth by echocardiography, WT mice (Examples 6-8); assay type: in vivo; conditions: 1 mg/kg per day in drinking water, 4 months, FIG. 18
From the text: (§4) All mice were cared for under strict compliance with the Animal Care and Use Committee of the Johns Hopkins University School of Medicine. The Smad4 haploinsufficient mice were a generous gift from Dr. Chuxia Deng (NIH/NIDDK, Bethesda). The Fbn1^C1039G/+ line was maintained on a C57BL/6 background, allowing for valid comparisons. In order to further accommodate the potential for temporal- or background-specific variation in genetic or pharmacological manipulation experiments, all comparisons were made between contemporary littermates. Mice were checked daily for death and all mice found dead were immediately necropsied to assess for evidence of aortic dissection. Mice were killed with an inhalation overdose of halothane (Sigma-Aldrich, St. Louis). Mice underwent immediate laparotomy, descending abdominal aortic transection, and PBS (pH 7.4) infusion through the left ventricle to flush out the blood. For Western blot analysis, the proximal ascending aorta (root to right brachiocephalic trunk) was removed, flash frozen in liquid nitrogen and stored at −80° C. Following PBS infusion, mice analyzed for aortic histology had latex injected under low pressure into the left ventricular apex until it was visible in the descending abdominal aorta. The mice were then fixed for 24 hours in 10% buffered formalin, after which the heart and aorta were removed and stored in 70% ethanol.
Mouse monoclonal TGFβNAb (1d11; R&D Systems, Minneapolis) was reconstituted in PBS and administered via intraperitoneal injection 3 times a week at a dose of 5 mg/kg. Treatment was initiated at 1 month of age and continued for 2 months. IgG (Zymed Laboratories Inc, San Francisco) was reconstituted in PBS, and administered at a dose of 10 mg/kg as a control. […]
Nair hair removal cream was used on all mice the day prior to echocardiography. […] Three separate measurements of the maximal internal systolic dimension at the sinus of Valsalva and proximal ascending aorta were made, and a mean was calculated. […]

[9] = test system: Fbn1^C1039G/+ mice; test: Aortic root and ascending aortic growth by echocardiography (Examples 6-8); assay type: in vivo
From the text: as §4
Mouse monoclonal TGFβNAb (1d11; R&D Systems, Minneapolis) was reconstituted in PBS and administered via intraperitoneal injection 3 times a week at a dose of 5 mg/kg. Treatment was initiated at 1 month of age and continued for 2 months. IgG (Zymed Laboratories Inc, San Francisco) was reconstituted in PBS, and administered at a dose of 10 mg/kg as a control. SP600125 (Sigma-Aldrich, St. Louis) was reconstituted in 10% DMSO dissolved in PBS, and administered twice daily by intraperitoneal injection, at a dose of 30 mg/kg. Treatment was initiated at 1 month of age and continued for 2 months. 10% DMSO dissolved in PBS was administered as a control. RDEA119 was reconstituted in 10% 2-hydroxypropyl-beta-cyclodextrin (Sigma-Aldrich, St. Louis) dissolved in PBS, and administered twice daily by oral gavage at a dose of 25 mg/kg. Treatment was initiated at 2 months of age and continued for 2 months. 10% 2-hydroxypropyl-beta-cyclodextrin dissolved in PBS was administered as a control. Fasudil was dissolved in drinking water, and administered at a dose of 1 mg/kg body weight per day. Treatment was initiated at 2 months of age and continued for 4 months. Drinking water was administered as a control.
Nair hair removal cream was used on all mice the day prior to echocardiography. All echocardiograms were performed on awake, unsedated mice using the Visualsonics Vevo 660 V1.3.6 imaging system and a 30 MHz transducer. The aorta was imaged using a parasternal long axis view. Three separate measurements of the maximal internal systolic dimension at the sinus of Valsalva and proximal ascending aorta were made, and a mean was calculated. All imaging and measurements were performed by a cardiologist who was blinded to genotype and treatment arm. In the TGFβNAb and SP600125 trials, mice were imaged at 1 month (baseline) and 3 months of age, after which they were killed. In the RDEA119 trial, mice were imaged at 2 months (baseline) and 4 months of age, after which they were killed. In the fasudil trial, mice were imaged at 2 months (baseline) and 6 months of age, after which they were killed. Smad4 haploinsufficient mice were imaged at 1 month, and then every 2 months thereafter, until death or sacrifice.

CCOC(=O)[C@H](CCc1ccccc1)N[C@@H](C)C(=O)N1CCC[C@H]1C(=O)O [enalapril]
Systolic blood pressure [1]: equal reduction in systolic blood pressure
Smad2 activation [2]: decreased
Smad2 activation ([2]; listed as Enalapril): significantly more than losartan
Final absolute aortic root diameter ([3]; FIG. 2B, mean +/- 2 SEM): 2.18+/−0.18 mm
Aortic root growth over 7 months of treatment [3]: marginal (P=0.05) decrease in growth
Aortic root growth over 7 months of treatment ([3]; listed as Enalapril): only marginally better than placebo treatment
ERK1/2 activation [4]: no more effective than placebo; also recorded: failed to reduce ERK1/2 activation
p38 activation [5]: do not affect p38 activation; also recorded: neither had any effect
JNK1 activation [6]: small reduction in JNK1 activation; also recorded: modest reduction in JNK1 activation
Aortic wall architecture score ([7]; FIG. 9): no more effective than placebo
Aortic wall architecture score ([7]; FIG. 9, listed as Enalapril): no more beneficial than placebo

O=S(=O)(c1cccc2cnccc12)N1CCCNCC1 [fasudil]
Absolute final aortic root diameter [8]: 1.73+/−0.05
Absolute final aortic root diameter ([9]; 1 mg/kg per day in drinking water, 4 months, FIG. 18): 2.40+/−0.16
Aortic root growth over 4 months ([9]; fasudil trial): lack of rescue of aortic root growth; also recorded: failed to attenuate aortic root growth

CC(=O)S[C@@H]1CC2=CC(=O)CC[C@]2(C)[C@H]2CC[C@@]3(C)[C@@H](CC[C@@]34CCC(=O)O4)[C@H]12 [spironolactone]
Final absolute aortic root diameter ([3]; FIG. 15, mean +/- 2 SEM): 2.19+/−0.19
Aortic root growth over 7 months of treatment [3]: no significant difference; also recorded: no significant inhibition of aortic root growth
